Key:
[1] = biological target: wild type PRC2 (wtPRC2) complex (Homo sapiens (Human), UniProt O75530); assay: EED LC-MS assay; type: biochemical; conditions: EED LC-MS Qualified assay; read-out: (b) IC50
Description: EED LC-MS Assay Representative compounds of the present invention were serially and separately diluted 3-fold in DMSO to obtain a total of eight or twelve concentrations. […] A 6 μL solution of 3 μM of the peptide substrate H3K27Me0 (histone H3[21-44]-biotin) in reaction buffer was added to initiate each reaction. […] The data were then fit to a dose response equation using the program Helios to get the IC50 values of the test compound.

[2] = system: H3K27 methylation in G401 cell; assay: ELISA (H3K27 methylation) assay; type: cell-based; conditions: Homo sapiens, G-401, ELISA Qualified assay, 48 h, read-out: (c) IC50
Description: ELISA (H3K27 Methylation) Assay
Representative compounds of the present invention were serially and separately diluted 3-fold in DMSO to obtain a total of eight or twelve concentrations. Then the compounds were added to G401 cell cultured in 384-well plate at 1:500 dilution to obtain the highest concentration of 20 μM. The cells were further cultured for 48 h before ELISA procedure.
ELISA protocol: Cell lysates were transferred to the wells of a 384-well plate and the final volume was adjusted to 50 μL per well with PBS. The plate was sealed, centrifuged at 2,000 rpm for 2 min and incubated at 4° C. for about 16 h. The plate was washed with TBST buffer (1×TBS (10×TBS: 24.2 g Tris (Sigma, T6066), 80 g NaCl (Sigma, S3014) to 1 L of water and adjust pH to 7.6 with HCl) with 0.1% Tween-20). Blocking buffer (TBST, 5% BSA; 50 μL per well) was added and the plate was incubated for 1 h at rt. The blocking buffer was removed and primary antibody was added (30 μL per well). […] The primary antibody was incubated in the plate at rt for 1 h. The wells were washed with TBST and incubated with secondary antibody for 1 h at rt. […] After 1 h of incubation at rt, the wells were washed with TBST. […] The signal was read using a PerkinElmer Envision Reader. The H3K27 methylation readouts were normalized using H3 signal and then percentage inhibition was calculated against the samples treated with DMSO. The data were then fit to a dose response curve using the program Helios to get the IC50 values of the test compound.

[3] = biological target: EED (1-441)-His protein (Homo sapiens (Human), UniProt O75530); assay: EED-H3K27Me3 peptide competition binding assay by AlphaScreen; conditions: EED Alphascreen binding Qualified assay
Description: Then 4 μL of detection beads mix was added to the plate and incubate in the dark at the rt for 1 h. The final concentration of donor and acceptor beads was 10 μg/mL for each. […] The data were then fit to a dose response equation using the program Helios (Novartis) to get the IC50 values. […] Sebaugh, J. […] Each compound was counter screened to determine if it interfered with the AlphaScreen beads. […] The plates were then incubated for 1 h at rt in dark before being read on EnVison.

EED (1-441)-His protein, sequence (O75530 whole entry): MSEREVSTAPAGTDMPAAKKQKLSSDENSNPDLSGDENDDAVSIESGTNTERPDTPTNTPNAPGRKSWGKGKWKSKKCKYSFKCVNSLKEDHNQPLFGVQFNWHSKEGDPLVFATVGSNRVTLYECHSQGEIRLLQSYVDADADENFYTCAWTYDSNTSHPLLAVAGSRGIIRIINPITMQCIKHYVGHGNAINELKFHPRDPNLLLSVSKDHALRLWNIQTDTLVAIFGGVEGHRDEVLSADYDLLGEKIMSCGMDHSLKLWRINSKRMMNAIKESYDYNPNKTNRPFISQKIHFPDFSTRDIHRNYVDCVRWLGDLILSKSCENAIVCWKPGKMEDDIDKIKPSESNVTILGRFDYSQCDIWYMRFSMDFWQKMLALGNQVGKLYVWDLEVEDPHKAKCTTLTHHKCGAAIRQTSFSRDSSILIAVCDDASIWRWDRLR
wild type PRC2 (wtPRC2) complex, sequence (O75530 whole entry): as above
wild type PRC2 (wtPRC2) complex, sequence (Q15910 whole entry partner): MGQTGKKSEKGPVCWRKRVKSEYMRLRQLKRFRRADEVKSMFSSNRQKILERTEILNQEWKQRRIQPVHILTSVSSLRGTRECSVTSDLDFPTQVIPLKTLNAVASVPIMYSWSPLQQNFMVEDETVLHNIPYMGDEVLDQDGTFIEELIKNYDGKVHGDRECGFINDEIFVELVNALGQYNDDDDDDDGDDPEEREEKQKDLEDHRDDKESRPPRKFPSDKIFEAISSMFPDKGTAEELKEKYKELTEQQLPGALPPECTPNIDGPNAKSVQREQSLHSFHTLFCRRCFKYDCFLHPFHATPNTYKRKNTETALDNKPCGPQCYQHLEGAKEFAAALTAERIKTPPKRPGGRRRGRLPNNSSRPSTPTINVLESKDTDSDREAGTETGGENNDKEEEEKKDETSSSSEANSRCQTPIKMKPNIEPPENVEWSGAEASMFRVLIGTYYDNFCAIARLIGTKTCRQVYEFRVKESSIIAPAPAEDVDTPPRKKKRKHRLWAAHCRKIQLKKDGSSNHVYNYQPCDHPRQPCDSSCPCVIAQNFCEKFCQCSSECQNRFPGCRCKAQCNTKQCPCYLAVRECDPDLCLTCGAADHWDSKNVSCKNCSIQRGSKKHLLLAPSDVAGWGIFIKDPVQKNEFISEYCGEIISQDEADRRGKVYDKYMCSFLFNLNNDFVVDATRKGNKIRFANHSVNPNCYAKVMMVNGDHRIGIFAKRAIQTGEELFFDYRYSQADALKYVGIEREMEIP
wild type PRC2 (wtPRC2) complex, sequence (Q15022 whole entry partner): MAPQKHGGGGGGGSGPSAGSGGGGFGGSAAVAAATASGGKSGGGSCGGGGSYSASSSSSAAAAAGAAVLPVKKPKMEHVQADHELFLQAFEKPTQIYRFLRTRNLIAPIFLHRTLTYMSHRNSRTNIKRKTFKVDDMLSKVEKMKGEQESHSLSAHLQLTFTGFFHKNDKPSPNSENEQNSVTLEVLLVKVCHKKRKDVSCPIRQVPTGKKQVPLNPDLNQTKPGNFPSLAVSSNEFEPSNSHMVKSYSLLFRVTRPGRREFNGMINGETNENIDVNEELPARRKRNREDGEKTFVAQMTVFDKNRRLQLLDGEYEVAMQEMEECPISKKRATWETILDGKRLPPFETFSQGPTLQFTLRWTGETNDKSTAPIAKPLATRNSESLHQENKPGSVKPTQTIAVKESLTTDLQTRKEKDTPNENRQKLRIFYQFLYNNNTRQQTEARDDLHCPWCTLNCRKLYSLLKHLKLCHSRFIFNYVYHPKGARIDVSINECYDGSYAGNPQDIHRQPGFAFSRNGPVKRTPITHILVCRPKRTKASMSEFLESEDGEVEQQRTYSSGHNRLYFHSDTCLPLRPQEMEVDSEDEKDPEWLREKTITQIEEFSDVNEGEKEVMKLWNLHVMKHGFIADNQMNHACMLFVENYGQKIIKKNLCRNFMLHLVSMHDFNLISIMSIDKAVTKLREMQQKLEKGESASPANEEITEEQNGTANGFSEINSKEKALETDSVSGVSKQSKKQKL

Row | SMILES | IC50 [1] [nM] | IC50 [2] [nM] | IC50 [3] [nM]
1 | N#Cc1ccc(-c2cnc(NCc3c(F)ccc4c3CCO4)n3cncc23)cn1 [Example 31, 5-(5-(((5-fluoro-2,3-dihydrobenzofuran-4-yl)methyl)amino)imidazo[1,5-c]pyrimidin-8-yl)picolinonitrile] | 20.9 | 39.9 | 14.4
2 | CCOC(=O)c1ncn2c(NCc3c(F)ccc4c3CCO4)ncc(-c3cnc(C)nc3C)c12 [Example 94, ethyl 8-(2,4-dimethylpyrimidin-5-yl)-5-(((5-fluoro-2,3-dihydrobenzofuran-4-yl)methyl)amino)imidazo[1,5-c]pyrimidine-1-carboxylate] | 5.7 | 3.6 | 4.3
3 | Cc1nn(CCO)c(C)c1-c1cnc(NCc2c(F)ccc3c2CCO3)n2cnc(C#N)c12 [Example 88, 5-(((5-fluoro-2,3-dihydrobenzofuran-4-yl)methyl)amino)-8-(1-(2-hydroxyethyl)-3,5-dimethyl-1H-pyrazol-4-yl)imidazo[1,5-c]pyrimidine-1-carbonitrile] | 11.7 | 13 | 3.4
4 | N#Cc1ncn2c(NCc3c(F)ccc4c3CCO4)ncc(-n3ccnc3)c12 [Example 119, 5-(((5-fluoro-2,3-dihydrobenzofuran-4-yl)methyl)amino)-8-(1H-imidazol-1-yl)imidazo[1,5-c]pyrimidine-1-carbonitrile] | 44.7 | 18.8 | 18.1
5 | CS(=O)(=O)c1ncn2c(NCc3c(F)ccc4c3CCO4)ncc(Br)c12 [Example 103, 8-bromo-N-((5-fluoro-2,3-dihydrobenzofuran-4-yl)methyl)-1-(methylsulfonyl)imidazo[1,5-c]pyrimidin-5-amine] | 10 | 36.1 | 5
6 | N#Cc1ncn2c(NCc3c(F)ccc4c3CCO4)ncc(-c3cccnc3CO)c12 [Example 78, 5-(((5-fluoro-2,3-dihydrobenzofuran-4-yl)methyl)amino)-8-(2-(hydroxymethyl)pyridin-3-yl)imidazo[1,5-c]pyrimidine-1-carbonitrile] | 16.2 | 17.9 | 5.1
7 | Cn1nccc1-c1cnc(NCc2c(F)ccc3c2CCO3)n2cncc12 [Example 33, N-((5-fluoro-2,3-dihydrobenzofuran-4-yl)methyl)-8-(1-methyl-1H-pyrazol-5-yl)imidazo[1,5-c]pyrimidin-5-amine] | 15.9 | 22.1 | 7.5
8 | CC(=O)c1ncn2c(NCc3c(F)ccc4c3CCO4)ncc(-c3cnc(C)nc3C)c12 [Example 16, 1-(8-(2,4-Dimethylpyrimidin-5-yl)-5-(((5-fluoro-2,3-dihydrobenzofuran-4-yl)methyl)amino)-imidazo[1,5-c]pyrimidin-1-yl)ethan-1-one] | 17.5 | 7.6 | 9.1
9 | CCOC(=O)c1ncn2c(NCc3c(F)cccc3OC)ncc(-c3cnc(C)nc3C)c12 [Example 98, ethyl 8-(2,4-dimethylpyrimidin-5-yl)-5-((2-fluoro-6-methoxybenzyl)amino)imidazo[1,5-c]pyrimidine-1-carboxylate] | 24.8 | 31.6 | 24
10 | COc1cc(CNc2ncc(-c3cccnc3C)c3c(C#N)ncn23)c(F)cc1F [Example 89, 5-((2,4-difluoro-5-methoxybenzyl)amino)-8-(2-methylpyridin-3-yl)imidazo[1,5-c]pyrimidine-1-carbonitrile] | 42.5 | 195 | 29.6
11 | Fc1ccc2c(c1CNc1ncc(-c3ccc(C(F)F)nc3)c3cncn13)CCO2 [Example 60, 8-(6-(difluoromethyl)pyridin-3-yl)-N-((5-fluoro-2,3-dihydrobenzofuran-4-yl)methyl)imidazo[1,5-c]pyrimidin-5-amine] | 11.3 | 52.1 | 15.3
12 | CCC(O)c1ncc(-c2cnc(NCc3c(F)ccc4c3CCO4)n3cnc(C#N)c23)c(C)n1 (stereo not drawn) [Example 80, 5-(((5-fluoro-2,3-dihydrobenzofuran-4-yl)methyl)amino)-8-(2-(1-hydroxypropyl)-4-methylpyrimidin-5-yl)imidazo[1,5-c]pyrimidine-1-carbonitrile] | 34.5 | 14.2 | 10.5
13 | N#Cc1ncn2c(NCc3c(F)ccc4c3CCO4)ncc(Br)c12 [Example 70, 8-bromo-5-(((5-fluoro-2,3-dihydrobenzofuran-4-yl)methyl)amino)imidazo[1,5-c]pyrimidine-1-carbonitrile] | 48.6 | 86.8 | 27.9
14 | CS(=O)(=O)c1ncn2c(NCc3c(F)ccc4c3CCO4)ncc(-c3cccnc3C(F)F)c12 [Example 13, 8-(2-(Difluoromethyl)pyridin-3-yl)-N-((5-fluoro-2,3-dihydrobenzofuran-4-yl)methyl)-1-(methylsulfonyl)imidazo[1,5-c]pyrimidin-5-amine] | 7.7 | 2.3 | 3.7
15 | Cc1cc(-c2cnc(NCc3c(F)ccc4c3CCO4)n3cncc23)n(C)n1 [Example 45, 8-(1,3-dimethyl-1H-pyrazol-5-yl)-N-((5-fluoro-2,3-dihydrobenzofuran-4-yl)methyl)imidazo[1,5-c]pyrimidin-5-amine] | 8.4 | 17.9 | 5.1
16 | Cc1nc(N2CCOCC2)ncc1-c1cnc(NCc2c(F)ccc3c2CCO3)n2cnc(C#N)c12 [Example 84, 5-(((5-fluoro-2,3-dihydrobenzofuran-4-yl)methyl)amino)-8-(4-methyl-2-morpholinopyrimidin-5-yl)imidazo[1,5-c]pyrimidine-1-carbonitrile] | 11 | 11.7 | 2.4
17 | Cc1ncc(-c2cnc(NCc3c(F)ccc4c3CCO4)n3cncc23)c(C)n1 [Example 1, 8-(2,4-Dimethylpyrimidin-5-yl)-N-((5-fluoro-2,3-dihydrobenzofuran-4-yl)methyl)imidazo[1,5-c]pyrimidin-5-amine] | 13.2 | 24.8 | 7.2
18 | Cc1ccc(-c2cnc(NCc3c(F)ccc4c3CCO4)n3cnc(C#N)c23)c(C)n1 [Example 75, 8-(2,6-dimethylpyridin-3-yl)-5-(((5-fluoro-2,3-dihydrobenzofuran-4-yl)methyl)amino)imidazo[1,5-c]pyrimidine-1-carbonitrile] | 16.7 | 45.5 | 8.4
19 | Cc1ncc(-c2cnc(NCc3c(F)ccc4c3CCO4)n3cnc(Cl)c23)c(C)n1 [Example 9, 1-chloro-8-(2,4-dimethylpyrimidin-5-yl)-N-((5-fluoro-2,3-dihydrobenzofuran-4-yl)methyl)imidazo[1,5-c]pyrimidin-5-amine] | 11 | 10.9 | 10.4
20 | Cc1nc(OC(C)C)ncc1-c1cnc(NCc2c(F)ccc3c2CCO3)n2cncc12 [Example 61, N-((5-fluoro-2,3-dihydrobenzofuran-4-yl)methyl)-8-(2-isopropoxy-4-methylpyrimidin-5-yl)imidazo[1,5-c]pyrimidin-5-amine] | 19.1 | 22.5 | 8.3
21 | Cc1nn(C(C)C)cc1-c1cnc(NCc2c(F)ccc3c2CCO3)n2cncc12 [Example 53, N-((5-fluoro-2,3-dihydrobenzofuran-4-yl)methyl)-8-(1-isopropyl-3-methyl-1H-pyrazol-4-yl)imidazo[1,5-c]pyrimidin-5-amine] | 23.1 | 94.8 | 9.9
22 | CN1CCc2ccc(-c3cnc(NCc4c(F)ccc5c4CCO5)n4cncc34)cc2C1 [Example 26, N-((5-fluoro-2,3-dihydrobenzofuran-4-yl)methyl)-8-(2-methyl-1,2,3,4-tetrahydroisoquinolin-7-yl)imidazo[1,5-c]pyrimidin-5-amine] | 41.5 | 54.1 | 50.3
23 | Cc1ccc(-c2ncn3c(NCc4c(F)ccc5c4CCO5)ncc(-c4cnc(C)nc4C)c23)cn1 [Example 114, 8-(2,4-dimethylpyrimidin-5-yl)-N-((5-fluoro-2,3-dihydrobenzofuran-4-yl)methyl)-1-(6-methylpyridin-3-yl)imidazo[1,5-c]pyrimidin-5-amine] | 31.9 | 22.8 | 8.4

Reference: patent US10676479B2, “Imidazolepyridine compounds and uses thereof” (Novartis AG, priority 2016, dated 2020)
